According to patent US7495027B2, “3-aryl-4-hydroxyfuranone compounds and the human and animal health use thereof” (Wyeth, priority 2003, dated 2009):

What was measured:
C. elegans = assay: Efficacy against nematodes (C. elegans motility rating); parameters: key: 0: no effect; 7: reduced movement in 24 h; 8: dead in 24 h; 9: dead in 4 h; conditions: observations at 4 h and 24 h postimmersion
Outline: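 Mixed-stage C. elegans (~50 per well, L1 to adult) in M9 buffer exposed to test compound at 100 ppm, 150 ppm or 200 μM final. Motility of larvae and adults scored under dissecting microscope at 4 h and 24 h.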

[1] = system: Trichostrongylus columbriformis; assay: In vivo efficacy against T. colubriformis in infected gerbils; conditions: gerbils infected with T. colubriformis, single oral dose of 50 mg/kg by gavage, worm counts four days post-treatment, % mortality as compared to negative control
Procedure: In Vivo Evaluation of the Efficacy of Test Compounds Against T. colubriformis
In this evaluation, gerbils are infected with Trichostrongylus columbriformis infective larvae at a concentration of approximately 800 L3/mL. Larvae for gerbil infections are cultured from feces from sheep previously infected with T. colubriformis. One week post infection, test compounds are administered by gavage as a single oral dose of 50 mg/kg of body weight. For each group of 3 gerbils, 10 mg of test compound are dissolved in 2 mL of PEG 400:DMSO (1:2 v/v) and each animal is administered the test solution at a rate of 0.1 mL/10 g of body weight. […] All animals are observed daily for morbidity and mortality. Four days post-treatment, all animals are weighed and necropsied. Worm counts are conducted with the use of stereoscopes and counters.

Work on O=C1OC(=Cc2cc(C(F)(F)F)ccc2F)C(O)=C1c1ccc(OC(F)(F)F)cc1 (mixture of isomers) [R=H; R1=4-OCF3—C6H4**; R2=2-F-5-CF3—C6H3] yielded a Rating (C. elegans; dose 100 ppm) of 9 and a Mortality [1] of 29.50%.

O=C1OC(=Cc2cc(Cl)cc(Cl)c2)C(O)=C1c1ccc(OC(F)(F)F)cc1 (mixture of isomers) [R=H; R1=4-OCF3—C6H4**; R2=3,5-diCl—C6H3] was tested, and the Rating (C. elegans; dose 100 ppm) was 9 and the Mortality [1] was 33.40%.

O=C1OC(=Cc2ccc(C(F)(F)F)c(F)c2)C(O)=C1c1ccc(OC(F)(F)F)cc1 (mixture of isomers) [R=H; R1=4-OCF3—C6H4**; R2=3-F-4-CF3—C6H3] showed a Rating (C. elegans; dose 100 ppm) of 9 and a Mortality [1] of 44.20%.

Compound O=C1OC(=Cc2ccc(OC(F)F)cc2)C(O)=C1c1ccc(OC(F)(F)F)cc1 (mixture of isomers) [R=H; R1=4-OCF3—C6H4**; R2=4-OCHF2—C6H4] has a Rating (C. elegans; dose 100 ppm) of 9 and a Mortality [1] of 44.20%.

With O=C1OC(=Cc2ccc(Oc3ccccc3)cc2)C(O)=C1c1ccc(OC(F)(F)F)cc1 (mixture of isomers) [R=H; R1=4-OCF3—C6H4**; R2=4-phenoxy-C6H4] the Rating (C. elegans; dose 100 ppm) was 0 and the Mortality [1] was 0.00%.

O=C1OC(=Cc2ccccn2)C(O)=C1c1ccc(OC(F)(F)F)cc1 (mixture of isomers) [R=H; R1=4-OCF3—C6H4**; R2=pyridine-2-yl] showed a Rating (C. elegans; dose 100 ppm) of 0 and a Mortality [1] of 0.00%.

In the case of O=C1OC(=Cc2cccnc2)C(O)=C1c1ccc(OC(F)(F)F)cc1 (mixture of isomers) [R=H; R1=4-OCF3—C6H4**; R2=pyridine-3-yl], the Rating (C. elegans; dose 100 ppm) is reported as 0 and the Mortality [1] is reported as 0.00%.

Work on O=C1OC(=Cc2cccs2)C(O)=C1c1ccc(OC(F)(F)F)cc1 (mixture of isomers) [R=H; R1=4-OCF3—C6H4**; R2=thiophen-2-yl] yielded a Rating (C. elegans; dose 100 ppm) of 0 and a Mortality [1] of 0.00%.

In the case of O=C1OC(=Cc2ccc3ccccc3c2)C(O)=C1c1cccc2ccccc12 [R=H; R1=1-naphthyl; R2=2-naphthyl], the Rating (C. elegans; dose 150 ppm) is reported as 9 and the Mortality [1] is reported as 28.90%.

With O=C1O/C(=C\c2ccc(-c3ccccc3)cc2)C(O)=C1c1cccc2ccccc12 [R=H; R1=1-naphthyl; R2=4-biphenyl] the Rating (C. elegans; dose 150 ppm) was 9 and the Mortality [1] was 18.50%.

O=C1O/C(=C\c2ccc(-c3ccccc3)cc2)C(O)=C1c1ccc(Cl)cc1Cl [R=H; R1=2,4-diCl—C6H3; R2=4-biphenyl] showed a Rating (C. elegans; dose 150 ppm) of 9 and a Mortality [1] of 24.50%.

In the case of O=C1O/C(=C\c2ccc(-c3ccccc3)cc2)C(O)=C1c1ccccc1C(F)(F)F [R=H; R1=2-CF3—C6H4; R2=4-biphenyl], the Rating (C. elegans; dose 150 ppm) is reported as 8 and the Mortality [1] is reported as 20.20%.

O=C1O/C(=C\c2cccc3ccccc23)C(O)=C1c1ccc2ccccc2c1 [R=H; R1=2-naphthyl; R2=1-naphthyl] was tested, and the Rating (C. elegans; dose 150 ppm) was 9 and the Mortality [1] was 36.10%.

Compound O=C1O/C(=C\c2ccc3ccccc3c2)C(O)=C1c1ccc2ccccc2c1 [R=H; R1=2-naphthyl; R2=2-naphthyl] has a Rating (C. elegans; dose 150 ppm) of 9 and a Mortality [1] of 13.80%.

In the case of O=C1O/C(=C\c2ccc(-c3ccccc3)cc2)C(O)=C1c1ccc(Cl)c(Cl)c1 [R=H; R1=3,4-diCl—C6H3; R2=4-biphenyl], the Rating (C. elegans; dose 150 ppm) is reported as 9 and the Mortality [1] is reported as 23.00%.

In the case of O=C1O/C(=C\c2cccc3ccccc23)C(O)=C1c1cc(Cl)cc(Cl)c1 [R=H; R1=3,5-diCl—C6H3; R2=1-naphthyl], the Rating (C. elegans; dose 150 ppm) is reported as 9 and the Mortality [1] is reported as 0.00%.

With O=C1O/C(=C\c2ccc3ccccc3c2)C(O)=C1c1cccc(C(F)(F)F)c1 [R=H; R1=3-CF3—C6H4; R2=2-naphthyl] the Rating (C. elegans; dose 150 ppm) was 9 and the Mortality [1] was 35.20%.

In the case of O=C1O/C(=C\c2cccc(C(F)(F)F)c2)C(O)=C1c1cccc(C(F)(F)F)c1 [R=H; R1=3-CF3—C6H4; R2=3-CF3—C6H4], the Rating (C. elegans; dose 150 ppm) is reported as 9 and the Mortality [1] is reported as 10.10%.

O=C1O/C(=C\c2ccc(Cl)cc2)C(O)=C1c1cccc(C(F)(F)F)c1 [R=H; R1=3-CF3—C6H4; R2=4-Cl—C6H4] gave a Rating (C. elegans; dose 100 ppm) of 9 and a Mortality [1] of 21.60%.

In the case of COc1ccc(/C=C2\OC(=O)C(c3cccc(C(F)(F)F)c3)=C2O)cc1 [R=H; R1=3-CF3—C6H4; R2=4-OCH3—C6H4], the Rating (C. elegans; dose 150 ppm) is reported as 9 and the Mortality [1] is reported as 3.10%.

With CC(=O)c1cccc(C2=C(O)C(=Cc3cccc4ccccc34)OC2=O)c1 [R=H; R1=3-COCH3—C6H4; R2=1-naphthyl] the Rating (C. elegans; dose 150 ppm) was 8 and the Mortality [1] was 10.70%.

With O=C1OC(=Cc2ccc(-c3ccccc3)cc2)C(O)=C1c1cccc(Cl)c1 [R=H; R1=3-Cl—C6H4; R2=4-biphenyl] the Rating (C. elegans; dose 150 ppm) was 9 and the Mortality [1] was 19.40%.

N#Cc1ccc(C2=C(O)C(=Cc3ccc(-c4ccc(C#N)cc4)cc3)OC2=O)cc1 [R=H; R1=4-CN—C6H4*; R2=4-(4′-CN-biphenyl)] was tested, and the Rating (C. elegans; dose 150 ppm) was 9 and the Mortality [1] was 88.07%.

N#Cc1ccc(C2=C(O)C(=Cc3ccccc3C(F)(F)F)OC2=O)cc1 [R=H; R1=4-CN—C6H4; R2=2-CF3—C6H4] showed a Rating (C. elegans; dose 150 ppm) of 7 and a Mortality [1] of 69.78%.

N#Cc1ccc(-c2ccc(/C=C3\OC(=O)C(c4ccc(Cl)cc4)=C3O)cc2)cc1 [R=H; R1=4-Cl—C6H4*; R2=4-(4′-CN-biphenyl)] gave a Rating (C. elegans; dose 150 ppm) of 9 and a Mortality ([1]; 50 mg/kg) of 23.80%.

For O=C1O/C(=C\c2cccc3ccccc23)C(O)=C1c1ccc(Cl)cc1 [R=H; R1=4-Cl—C6H4; R2=1-naphthyl], the Rating (C. elegans; dose 150 ppm) was 9 and the Mortality [1] was 0.00%.

Work on O=C1OC(=Cc2ccc3ccccc3c2)C(O)=C1c1ccc(Cl)cc1 [R=H; R1=4-Cl—C6H4; R2=2-naphthyl] yielded a Rating (C. elegans; dose 150 ppm) of 9 and a Mortality [1] of 52.80%.

In the case of COc1ccc(C=C2OC(=O)C(c3ccc(Cl)cc3)=C2O)cc1 [R=H; R1=4-Cl—C6H4; R2=4-OCH3—C6H4], the Rating (C. elegans; dose 150 ppm) is reported as 0 and the Mortality [1] is reported as 7.10%.

Work on COc1ccc(C2=C(O)C(=Cc3ccc(-c4ccccc4)cc3)OC2=O)cc1 [R=H; R1=4-OCH3—C6H4; R2=4-biphenyl] yielded a Rating (C. elegans; dose 150 ppm) of 9 and a Mortality [1] of 44.90%.

In the case of O=C1O/C(=C\c2ccccc2C(F)(F)F)C(O)=C1c1ccc(-c2ccccc2)cc1 [R=H; R1=4-biphenyl; R2=2-CF3—C6H4], the Rating (C. elegans; dose 150 ppm) is reported as 9 and the Mortality [1] is reported as 23.90%.

O=C1OC(=Cc2ccc(C(F)(F)F)cc2)C(O)=C1c1ccc(-c2ccccc2)cc1 [R=H; R1=4-biphenyl; R2=4-CF3—C6H4] was tested, and the Rating (C. elegans; dose 150 ppm) was 9 and the Mortality [1] was 0.00%.

O=C1O/C(=C\c2ccc(Cl)cc2)C(O)=C1c1ccc(-c2ccccc2)cc1 [R=H; R1=4-biphenyl; R2=4-Cl—C6H4] was tested, and the Rating (C. elegans; dose 150 ppm) was 9 and the Mortality [1] was 44.70%.
